Experiments:
Type in all cases: toxicity, cell-based
[1] = system: HEK-293T; assay: Incucyte cell viability with HEK293T; details: human, 10 µM, compound concentration 10 uM
[2] = system: Fibroblast; assay: Incucyte cell viability with human fibroblast; details: 10 µM, compound concentration 10 uM
[3] = system: U2OS; assay: Incucyte cell viability with U2OS; details: human, 10 µM, compound concentration 10 uM
[4] = 0 h, replicate number 1, timepoint 0 hours
[5] = 6 h, replicate number 1, timepoint 6 hours
[6] = 6 h, replicate number 2, timepoint 6 hours
[7] = 12 h, replicate number 1, timepoint 12 hours
[8] = 12 h, replicate number 2, timepoint 12 hours
[9] = 18 h, replicate number 1, timepoint 18 hours
[10] = 24 h, replicate number 1, timepoint 24 hours
[11] = 0 h, replicate number 2, timepoint 0 hours
[12] = 18 h, replicate number 2, timepoint 18 hours
[13] = 24 h, replicate number 2, timepoint 24 hours
Also: filed as whole numbers so only -1 and 0 and 1 occur.

| Compound | Growth Rate [1, 4] | Growth Rate [1, 5] | Growth Rate [1, 7] | Growth Rate [1, 9] | Growth Rate [1, 10] | Growth Rate [2, 5] | Growth Rate [2, 7] | Growth Rate [2, 9] | Growth Rate [2, 10] | Growth Rate [3, 4] | Growth Rate [3, 7] | Growth Rate [3, 9] | Growth Rate [3, 10] | Growth Rate [1, 11] | Growth Rate [2, 11] | Growth Rate [2, 8] | Growth Rate [2, 12] | Growth Rate [2, 13] | Growth Rate [3, 5] | Growth Rate [3, 12] | other results |
| --- | --- | --- | --- | --- | --- | --- | --- | --- | --- | --- | --- | --- | --- | --- | --- | --- | --- | --- | --- | --- | --- |
| Cc1nc2sccn2c(=O)c1CCN1CCC(=C(c2ccc(F)cc2)c2ccc(F)cc2)CC1 [RITANSERIN] | 0 | 1 | 1 | 0 | 0 | 0 | 0 | 0 | 0 | 1 | 1 | 1 | 1 |  |  |  |  |  |  |  | Growth Rate [1, 6]: 0; Growth Rate [1, 8]: 0; Growth Rate [2, 4]: 0; Growth Rate [3, 11]: 0 |
| C[C@@H]1CCc2ncc(F)cc2[C@H]2CCCN2c2ccn3ncc(c3n2)C(=O)N1 [SELITRECTINIB] | 0 | 0 | 0 | 0 | 0 | 1 | 1 | 1 | 1 | 1 | 1 | 0 | 1 | 1 | 0 | 0 | 0 | 0 | 0 |  | Growth Rate [1, 12]: 1; Growth Rate [2, 6]: 0; Growth Rate [3, 8]: 0; Growth Rate [3, 13]: 0 |
| COc1cccc(CNC(=O)c2nc3scc(CN(C)Cc4ccccc4)c3c(=O)[nH]2)c1 [T-26f] | 0 |  |  |  |  | 0 | 0 | 0 | 0 | 0 | 1 | 1 | 1 | 1 |  | 1 | 1 | 1 | 1 | 0 | Growth Rate [2, 4]: 0 |
| CC(C)CC(=O)N1CCc2nc(-c3ccc(Br)cc3)nc(N(C)Cc3ccccc3)c2C1 [THPP-1-NC] | 0 |  |  |  | 1 | 1 | 0 | 1 | 1 | 0 | 0 | 0 | 0 | 1 | 0 |  | 0 | 0 | 1 | 1 | Growth Rate [1, 6]: 0; Growth Rate [1, 8]: 0; Growth Rate [1, 12]: 1; Growth Rate [1, 13]: 0; Growth Rate [2, 6]: 0; Growth Rate [3, 6]: 0 |
| Cc1cnc(-c2cc(Cl)ccc2F)cc1-n1c(=O)n(CC(N)=O)c2cnccc21 [TP-008] | 0 |  |  |  |  | 1 | 0 | 0 | 1 |  | 0 | 0 | 1 | 1 | 0 | 1 | 1 | 0 | 1 | 1 | Growth Rate [1, 6]: 1; Growth Rate [1, 8]: 1; Growth Rate [1, 13]: 1; Growth Rate [3, 11]: 0; Growth Rate [3, 8]: 1 |
| N#Cc1ccc(Nc2ccc3[nH]c(=O)[nH]c3c2)c(Cl)c1 [TP-021n] | 0 |  |  |  |  | 0 | 0 | 0 | 0 | 1 | 0 | 0 | 0 | 1 | 1 |  | 1 |  | 0 | 1 | Growth Rate [1, 13]: 1; Growth Rate [3, 11]: 0 |
| CN1C(=O)[C@@H](N2CCc3c(nn(Cc4ccccc4)c3Br)C2=O)COc2ccccc21 [TP-030-2] | 0 |  |  | 1 | 1 | 0 | 0 | 0 | 0 | 0 | 0 | 0 | 0 | 1 |  |  |  |  | 0 | 1 | Growth Rate [1, 6]: 0; Growth Rate [1, 8]: 0; Growth Rate [1, 13]: 0; Growth Rate [3, 6]: 1; Growth Rate [3, 8]: 1; Growth Rate [3, 13]: 1 |
| CC(C)Oc1ccc(-c2nn([C@@H](C)c3oc4ccc(F)cc4c(=O)c3-c3cccc(F)c3)c3ncnc(N)c23)cc1F [UMBRALISIB] | 1 | 0 | 0 | 0 | 0 | 1 | 1 | 1 | 1 | 0 | 0 | 0 | 0 | 0 |  | 0 |  |  | 0 | 1 | Growth Rate [2, 6]: 0; Growth Rate [3, 6]: 1; Growth Rate [3, 8]: 1; Growth Rate [3, 13]: 1 |
| Nc1nc(NCc2ccccc2)nc(-c2cccc(CO)c2)n1 [ZINC32547799] | 0 | 0 | 0 | 0 | 0 | 0 | 0 | 0 | 0 | 0 | 1 | 1 | 1 |  |  | 1 |  | 1 |  |  | Growth Rate [2, 4]: 0; Growth Rate [3, 6]: 0 |
| Nc1nc(NCCc2ccc(O)cc2)nc2nc(-c3ccco3)nn12 [ZM-241385] | 1 | 0 | 0 | 0 | 0 |  | 1 | 1 | 1 |  | 0 | 0 | 0 | 0 | 1 | 0 | 0 |  | 0 | 1 | Growth Rate [2, 4]: 0; Growth Rate [2, 6]: 0; Growth Rate [3, 11]: 0; Growth Rate [3, 8]: 1; Growth Rate [3, 13]: 1 |

— ChEMBL document CHEMBL4689842, “EUbOPEN Chemogenomics Library wave 1” (2021)
